# Literature values in US12435156B2, “Methods for treating neuroblastoma with combination therapy” (MEMORIAL SLOAN-KETTERING CANCER CENTER, priority 2018, dated 2025).
# Experiments:
# [1] = not given; remark: listed apart in the source
# [2] = human, in vivo
# [3] = biological target: T1, topoisomerase I (Homo sapiens, UniProt P11387)
# T1 sequence (P11387 1-765): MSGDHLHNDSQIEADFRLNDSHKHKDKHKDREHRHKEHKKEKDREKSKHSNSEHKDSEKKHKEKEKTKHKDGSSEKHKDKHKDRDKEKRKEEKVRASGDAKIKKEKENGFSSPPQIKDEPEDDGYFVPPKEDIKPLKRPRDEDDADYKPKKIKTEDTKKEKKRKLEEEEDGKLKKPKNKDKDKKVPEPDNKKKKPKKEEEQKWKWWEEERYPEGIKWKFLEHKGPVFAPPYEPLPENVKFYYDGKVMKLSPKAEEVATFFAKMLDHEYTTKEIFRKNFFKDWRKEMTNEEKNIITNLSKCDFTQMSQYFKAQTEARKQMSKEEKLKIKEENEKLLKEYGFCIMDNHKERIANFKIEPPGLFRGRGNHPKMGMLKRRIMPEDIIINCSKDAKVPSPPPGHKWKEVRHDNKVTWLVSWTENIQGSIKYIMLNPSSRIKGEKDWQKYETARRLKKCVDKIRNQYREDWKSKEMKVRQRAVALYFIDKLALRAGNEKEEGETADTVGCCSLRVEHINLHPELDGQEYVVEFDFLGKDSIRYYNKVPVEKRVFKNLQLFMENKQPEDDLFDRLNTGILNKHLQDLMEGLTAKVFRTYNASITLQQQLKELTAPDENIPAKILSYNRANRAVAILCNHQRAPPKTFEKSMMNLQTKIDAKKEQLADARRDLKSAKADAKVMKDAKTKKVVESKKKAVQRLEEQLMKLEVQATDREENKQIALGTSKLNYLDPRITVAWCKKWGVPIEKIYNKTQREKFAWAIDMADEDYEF
# [4] = tested on: human plasma proteins
# [5] = tested on: Cytochrome P450 enzymes
# [6] = not given; remark: listed apart in the source
# [7] = not given; remark: listed apart in the source
molecule,measurement,setting,value
NC(=O)c1[nH]cnc1N [AIC],Exposure relative to the AUC of temozolomide,in vivo,23%
"CCc1c2c(nc3ccc(OC(=O)N4CCC(N5CCCCC5)CC4)cc13)-c1cc3c(c(=O)n1C2)COC(=O)[C@]3(O)CC [Irinotecan, (S)-4,11-diethyl-4-hydroxy-3,14-dioxo-3,4,12,14-tetrahydro-1H-pyrano[3′,4′:6,7]indolizino[1,2-b]quinolin-9-yl [1,4′-bipiperidine]-1′-carboxylate]",Water solubility,[1],water-soluble
same,Toxicity associated with treatment,[2],"severe diarrhea, myelosuppression, and neutropenia"
"CCc1c2c(nc3ccc(O)cc13)-c1cc3c(c(=O)n1C2)COC(=O)[C@]3(O)CC [SN-38, 7-ethyl-10-hydroxycamptothecin]",Topoisomerase I inhibitor potency/activity,[3],much higher potency than irinotecan
"CCc1c2c(nc3ccc(O[C@@H]4O[C@H](C(=O)O)[C@@H](O)[C@H](O)[C@H]4O)cc13)-c1cc3c(c(=O)n1C2)COC(=O)[C@]3(O)CC [SN-38G, SN-38 glucuronide]",Topoisomerase I inhibitor potency/activity,[3],inactive
"Cn1nnc2c(C(N)=O)ncn2c1=O [Temozolomide, 3,4-dihydro-3-methyl-4-oxoimidazo[5,1-d]-as-tetrazine-8-carboxamide]",Mean apparent volume of distribution,% CV=13%,0.4 L/kg
same,Kinetics over the therapeutic dosing range,in vivo,linear kinetics
same,Overall clearance,in vivo,about 5.5 L/hr/m^2
same,Absorption after oral administration,oral,rapidly and completely absorbed
same,Time of peak plasma concentrations,oral administration,1 h
same,Administered total radioactive dose recovered in feces,over 7 days,0.8%
same,Administered total radioactive dose recovered in urine,over 7 days,37.7%
same,Administered total radioactive dose recovered,"over 7 days, total",About 38%
same,Mean percent bound of drug-related total radioactivity,[4],15%
same,Role of cytochrome P450 enzymes in metabolism,[5],only a minor role
same,Stability at physiologic pH,[6],spontaneously hydrolyzed
same,Dose-limiting side effects,[2],"hematologic toxicity, myelosuppression, anemia, and leukopenia"
Cn1nnc2c(C(=O)O)ncn2c1=O [temozolomide acid metabolite],Recovery of radioactivity in urine as this species,after temozolomide radioactive dose,2.3%
sargramostim: Yeast-derived human recombinant granulocyte-macrophage colony stimulating factor,Storage of liquid once the vial has been entered,[7]; 2-8° C.,up to 20 days
same,pH of reconstituted solution,"[7]; 250 mcg vial reconstituted with 0.5 mL sterile water, 500 mcg/mL",7.4±0.3
same,Time to administration following reconstitution,"[7]; single-use 250 mcg vials, no preservative",≤ 6 h
